How the values were obtained:
Assay type in all cases: cell-based
human normal fibroblasts [1] = experiment: Inhibition of lipofuscin accumulation in skin cells (lipofuscin fluorescence); settings: for Absorbance (570 nm): 10 ppm, after 10 passages of subculture, excitation 360 nm, emission 570 nm, control group 0.650; for inhibition at 10 ppm: Homo sapiens, Fibroblast, after 10 passages, relative to control group (equation 2), read-out: Lipofusin accumulation inhibition rate (%)
Protocol: In order to examine the effect on the inhibition of lipofuscin accumulation that prevents aging, human normal fibroblasts were seeded into a 96-well microplate at a density of 1×10^4 cells/well, and incubated in DMEM (Dulbecco's Modified Eagle's Medium) medium for 24 hours. After incubation, the medium was replaced with serum-free DMEM media containing 10 ppm of each of dehydroabietic acid (Comparative Example 1), compound K (Comparative Example 2), and a mixture of dehydroabietic acid and compound K (weight ratio of 1:7; Example 1). Then, the cells were subcultured in a fresh medium every 48 hours. After 10 passages of subculture, the fluorescence of the self-luminescent protein lipofuscin in the cells was measured using a microplate reader with the excitation wavelength of 360 nm and the emission wavelength of 570 nm. Based on the experiment results, the effect on inhibition of lipofuscin accumulation was calculated using the following equation 2. [formula]

human normal fibroblasts [2] = experiment: Skin cell proliferation (MTT assay); settings: 10 ppm, 24 hours; for Cell proliferation effect (%): relative to control group (equation 1); for Absorbance (570 nm): MTT, serum-free DMEM, control group 0.355
Protocol: In order to examine the effect on skin cell proliferation that reduces wrinkles and enhances skin elasticity, human normal fibroblasts were seeded into a 96-well microplate at a density of 1×10^4 cells/well, and incubated in DMEM (Dulbecco's Modified Eagle's Medium) medium for 24 hours. After incubation, the medium was replaced with serum-free DMEM media containing 10 ppm of each of dehydroabietic acid (Comparative Example 1), compound K (Comparative Example 2), and a mixture of dehydroabietic acid and compound K (weight ratio of 1:7; Example 1), and then the cells were further incubated for 24 hours. Then, 10 μl of 3-(4,5-dimethylthiazol-2-yl)-2,5-diphenyl tetrazolium (MTT, 5 mg/ml) was added to each well, which was then allowed to stand for 4 hours, followed by removal of the medium. Then, 100 μl of dimethyl sulfoxide solution was added to each well, and the absorbance at 570 nm was measured with a microplate reader. Based on the experiment results, the cell proliferation effect was calculated using the following equation 1. [formula]

human normal fibroblasts [3] = experiment: Promotion of collagen biosynthesis (procollagen type-I C-peptide, PICP, in supernatant); settings: 10 ppm, 48 hours, control group 125
Protocol: In order to examine the effect on the promotion of collagen biosynthesis that reduces wrinkles and enhances skin elasticity, human normal fibroblasts were seeded into a 96-well microplate at a density of 1×10^4 cells/well, and incubated in DMEM (Dulbecco's Modified Eagle's Medium) medium for 24 hours. After incubation, the medium was replaced with serum-free DMEM media containing 10 ppm of each of dehydroabietic acid (Comparative Example 1), compound K (Comparative Example 2), and a mixture of dehydroabietic acid and compound K (weight ratio of 1:7; Example 1) and then the cells were further incubated for 48 hours. At 24 hours before completion of the incubation, 10 μM ascorbic acid as the positive control was added to each well to promote collagen synthesis. After completion, each well was washed, and the medium was replaced with serum-free DMEM medium, after which the cells were further incubated for 24 hours. After incubation, the supernatant of each well was collected, and the amount of procollagen type-I C-peptide (PICP) in the supernatant was measured using a kit (Takara, Kyoto, Japan) to determine the amount of newly synthesized collagen.

Compound	Absorbance (570 nm) (human normal fibroblasts [1])	inhibition at 10 ppm (human normal fibroblasts [1])	Cell proliferation effect (%) (human normal fibroblasts [2])	Absorbance (570 nm) (human normal fibroblasts [2])	Amount of collagen synthesized (human normal fibroblasts [3])
CC(C)c1ccc2c(c1)CC[C@H]1[C@](C)(C(=O)O)CCC[C@]21C [Comparative Example 1, dehydroabietic acid]	0.465	28.5%	53.8%	0.546	174 ng/2 × 10^4
O=C1O[C@H]([C@@H](O)CO)C(O)=C1O [Ascorbic acid, ascorbic acid]	–	–	–	–	186 ng/2 × 10^4
CC(C)=CCC[C@](C)(O[C@@H]1O[C@H](CO)[C@@H](O)[C@H](O)[C@H]1O)[C@H]1CC[C@]2(C)[C@@H]1[C@H](O)C[C@@H]1[C@@]3(C)CC[C@H](O)C(C)(C)[C@@H]3CC[C@]12C [Comparative Example 2, compound K]	0.448	31.1%	46.5%	0.520	162 ng/2 × 10^4
